The target in experiment [1] is T1, BIR3-mediated Caspase-9 inhibition (UniProt Q9R0I6).
T1 construct: Nothing is printed for this assay
The experiment is described as follows: Caspase-9 rescue assay (relief of BIR3-mediated Caspase-9 inhibition). The class given is biochemical, human Caspase-9; Rat or Chicken BIR3. The following applies: average EC50, substrate Ac-LEHD-amc, pH 6.5. The method, then: Additionally the compounds and compositions can be evaluated for their ability to achieve relief of BIR3-mediated Caspase-9 inhibition by measuring Caspase-9 reactivation. The fluorogenic substrate Ac-LEHD-7-amido-4-methylcoumarin is used in these methods. EC50 values of tested BIR3 inhibitors or Caspase-9 rescuers is calculated from the percentage of Caspase-9 reactivation in the mixtures containing serially diluted concentrations of tested compound. Typically, 10-point curves are generated for such EC50 determination.
Relief of BIR3-mediated Caspase-9 inhibition by BIR3 inhibitors was assayed by measuring Caspase-9 reactivation using the fluorogenic substrate Ac-LEHD-7-amido-4-methylcoumarin. A truncated form of human Caspase-9 that lacks the N-terminal Caspase recruitment domain (EPro-Caspase-9 or p35/p12) was used in the assay. This form of the enzyme has the full catalytic activity and the same substrate specificity as the full-length protein in the Apaf-1/Cytochrome C/dATP/Caspase-9 reconstituted system. Rat or Chicken BIR3 was used in this assay. […] This mixture was incubated for 40 min to allow equilibration at 25° C., and the assay progression was subsequently followed by monitoring the formation of fluorescent 7-amido-4-methylcoumarin over time at 460 nm using an excitation wavelength of 360 nm. […] EC50 values of tested BIR3 inhibitors or Caspase-9 rescuers were calculated from the percentage of Caspase-9 reactivation in the mixtures containing serially diluted concentrations of tested compound.

The target in another experiment is BIR3 domain of rat XIAP (Rattus norvegicus, UniProt Q9R0I6). The experiment is described as follows: Fluorescence polarization assay, binding to BIR3 from rat XIAP. (Fluorescence polarisation rises when a labelled molecule tumbles more slowly, as on binding a larger partner.)
Sequence of BIR3 domain of rat XIAP (Q9R0I6 241-355): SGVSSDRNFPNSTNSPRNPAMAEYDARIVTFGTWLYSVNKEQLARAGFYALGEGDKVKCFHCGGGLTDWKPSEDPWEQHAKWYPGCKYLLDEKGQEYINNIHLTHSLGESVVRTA

SMILES strings stand for the structures. Where a name gives a salt, the structure may show the parent alone. Read-outs that look alike come from different tables or passages of the source.

One may read the EC50 as the concentration that produces a half-maximal response.

Procedure for BIR3 domain of rat XIAP: In fluorescence polarization assays a fluorescent probe is used. The binding affinity of compounds to BIR3 is measured by competitive displacement of a fluorescent probe using fluorescence polarization anisotropy. […] In other embodiments, the probe used is 6-(6-Hydroxy-3-oxo-3H-xanthen-9-yl)-N-(5-(2-methylamino-propionylamino)-6-oxo-6-[4-(1,2,3,4-tetrahydro-naphthalen-1-ylcarbamoyl)-thiazolidin-3-yl]-hexyl)-isophthalamic acid.
The binding affinity of compounds provided herein for rat BIR3 was measured by competitive displacement of a fluorescent probe using fluorescence polarization anisotropy. […] Control conditions were set up on each plate and include free probe 1 alone (5 nM), fully bound probe (5 μM BIR3+5 nM probe 1) and binding buffer blank. The-EC50 of binding was computed from a 4-parameter fit of the measured anisotropies using the SoftMax Pro 4.6 software package (Molecular Dynamics, Sunnyvale, Calif.).
Alternatively, probe 1 was substituted with probe 2: 6-(6-Hydroxy-3-oxo-3H-xanthen-9-yl)-N-{5-(2-methylamino-propionylamino)-6-oxo-6-[4-(1,2,3,4-tetrahydro-naphthalen-1-ylcarbamoyl)-thiazolidin-3-yl]-hexyl}-isophthalamic acid, for rat BIR3 and the concentrations of assay components changed. […] Controls were adjusted accordingly.

In the case of `CNC(C)C(=O)NC(C(=O)N1Cc2ccccc2CC1C(=O)NC(c1ccccc1)c1ccccc1)C(C)C` (centres unmarked) [2-[3-Methyl-2-(2-methylamino-propionylamino)-butyryl]-1,2,3,4-tetrahydro-isoquinoline-3-carboxylic acid benzhydryl-amide], the EC50 in experiment [1] was 1000 to 10000 nM; on BIR3 domain of rat XIAP, less than 1000 nM.
Regarding `CNC(C)C(=O)NC(C(=O)NC(CCCCNS(=O)(=O)c1ccc(OC)cc1)C(=O)NC1CCCc2ccccc21)C(C)C` (centres unmarked) [6-(4-Methoxy-benzenesulfonylamino)-2-[3-methyl-2-(2-methylamino-propionylamino)-butyrylamino]-hexanoic acid (1,2,3,4-tetrahydro-naphthalen-1-yl)-amide], the EC50 (in experiment [1]; at BIR3 domain of rat XIAP) was less than 1000 nM throughout.
For the compound `CNC(C)C(=O)NC(C(=O)N(C)C(CCCCNC(=O)OCc1ccccc1)C(=O)NC1CCCc2ccccc21)C(C)C` (centres unmarked) [[5-{Methyl-[3-methyl-2-(2-methylamino-propionylamino)-butyryl]-amino}-5-(1,2,3,4-tetrahydro-naphthalen-1-ylcarbamoyl)-pentyl]-carbamic acid benzyl ester], the EC50 in experiment [1] was 1000 to 10000 nM; on BIR3 domain of rat XIAP, less than 1000 nM.
As to `CC(NCC1CC1)C(=O)NC(C(=O)N1CCCC1C(=O)NC1CCCc2ccccc21)C(C)(C)C` (centres unmarked) [1-{2-[2-(Cyclopropylmethyl-amino)-propionylamino]-3,3-dimethyl-butyryl}-pyrrolidine-2-carboxylic acid (1,2,3,4-tetrahydro-naphthalen-1-yl)-amide], the concentration giving a half-maximal response (EC50) in experiment [1] is 1000 to 10000 nM; on BIR3 domain of rat XIAP it was less than 1000 nM.
As for `CNC(C)C(=O)NC1CCC(=O)N2CCC(C(=O)NC3CCCc4ccccc43)N2C1=O` (centres unmarked) [8-(2-Methylamino-propionylamino)-5,9-dioxo-hexahydro-pyrazolo[1,2-a][1,2]diazepine-1-carboxylic acid (1,2,3,4-tetrahydro-naphthalen-1-yl)-amide], the EC50 was 1000 to 10000 nM in experiment [1] and less than 1000 nM on BIR3 domain of rat XIAP.
Regarding `CC(C)CNC(C)C(=O)NC(C(=O)N1CCCC1C(=O)NC1CCCc2ccccc21)C(C)(C)C` (centres unmarked) [1-[2-(2-Isobutylamino-propionylamino)-3,3-dimethyl-butyryl]-pyrrolidine-2-carboxylic acid (1,2,3,4-tetrahydro-naphthalen-1-yl)-amide], the EC50 was 1000 to 10000 nM in experiment [1] and less than 1000 nM on BIR3 domain of rat XIAP.
Consider `CN[C@@H](C)C(=O)N[C@H](C(=O)N1COC[C@H]1C(=O)N[C@@H]1CCCc2ccccc21)C(C)C` [3-[3-Methyl-2-(2-methylamino-propionylamino)-butyryl]-oxazolidine-4-carboxylic acid (1,2,3,4-tetrahydro-naphthalen-1-yl)-amide], for which the EC50 (in experiment [1]; at BIR3 domain of rat XIAP) was less than 1000 nM each time.
Take `CNC(C)C(=O)NC(C(=O)NC(CCC(=O)OCc1ccccc1)C(=O)NC1CCCc2ccccc21)C(C)C` (centres unmarked) [4-[3-Methyl-2-(2-methylamino-propionylamino)-butyrylamino]-4-(1,2,3,4-tetrahydro-naphthalen-1-ylcarbamoyl)-butyric acid benzyl ester]: the EC50 in experiment [1] was 1000 to 10000 nM; at BIR3 domain of rat XIAP, less than 1000 nM.
The matching figures for `CNC(C)C(=O)NC(C(=O)NC(CCCCN(C)C)C(=O)NC1CCCc2ccccc21)C(C)C` (centres unmarked) [6-Dimethylamino-2-[3-methyl-2-(2-methylamino-propionylamino)-butyrylamino]-hexanoic acid (1,2,3,4-tetrahydro-naphthalen-1-yl)-amide]: less than 1000 nM and less than 1000 nM.
Regarding `CNC(C)C(=O)NC(C(=O)NCC(=O)NC1CCCc2ccccc21)C(C)C` (centres unmarked) [3-Methyl-2-(2-methylamino-propionylamino)-N-[(1,2,3,4-tetrahydro-naphthalen-1-ylcarbamoyl)-methyl]-butyramide], the EC50 (in experiment [1]; at BIR3 domain of rat XIAP) was 1000 to 10000 nM throughout.
With `CNC(C)C(=O)NC(C(=O)N(CCCCCNC(=O)OCc1ccccc1)CC(=O)NC1CCCc2ccccc21)C(C)C` (centres unmarked) [(5-{[3-Methyl-2-(2-methylamino-propionylamino)-butyryl]-[(1,2,3,4-tetrahydro-naphthalen-1-ylcarbamoyl)-methyl]-amino}-pentyl)-carbamic acid benzyl ester], the concentration giving a half-maximal response (EC50) in experiment [1] was 1000 to 10000 nM; at BIR3 domain of rat XIAP it was less than 1000 nM.
In the case of `CN[C@@H](C)C(=O)N[C@H](C(=O)N(C)[C@@H](CCCNC(=N)NS(=O)(=O)c1ccc(C)cc1)C(=O)N[C@@H]1CCCc2ccccc21)C(C)C` [(S)-2-((S)-N,3-dimethyl-2-((S)-2-(methylamino)propanamido)butanamido)-N-((R)-1,2,3,4-tetrahydronaphthalen-1-yl)-5-(3-Htosylguanidino)pentanamide; 2,2,2-trifluoroacetic acid salt], the EC50 in experiment [1] was less than 1000 nM; at BIR3 domain of rat XIAP (read-out: EC50 for binding to BIR3, average EC50, BIR3 domain of rat XIAP, competitive displacement of fluorescent probe) it was less than 1000 nM.
Consider `CNC(C)C(=O)NC(C(=O)N1C(C(=O)NC2CCCc3ccccc32)CC2CCCCC21)C(C)C` (centres unmarked) [1-[3-Methyl-2-(2-methylamino-propionylamino)-butyryl]-octahydro-indole-2-carboxylic acid (1,2,3,4-tetrahydro-naphthalen-1-yl)-amide], for which the EC50 (in experiment [1]; at BIR3 domain of rat XIAP) was less than 1000 nM in each case.
Regarding `CNC(C)C(=O)NC(C(=O)NC(C(=O)NC1CCCc2ccccc21)c1ccccc1)C(C)C` (centres unmarked) [3-Methyl-2-(2-methylamino-propionylamino)-N-[phenyl-(1,2,3,4-tetrahydro-naphthalen-1-ylcarbamoyl)-methyl]-butyramide], the 50% effective concentration (EC50) (in experiment [1]; at BIR3 domain of rat XIAP) was less than 1000 nM in each case.
As for `CNC(C)C(=O)NC(C(=O)NC(Cc1ccccc1)C(=O)NC1CCCc2ccccc21)C(C)C` (centres unmarked) [3-Methyl-2-(2-methylamino-propionylamino)-N-[2-phenyl-1-(1,2,3,4-tetrahydro-naphthalen-1-ylcarbamoyl)-ethyl]-butyramide], the values for the EC50 (in experiment [1]; on BIR3 domain of rat XIAP) were more than 10000 nM and 1000 to 10000 nM, respectively.
Regarding `CNC(C)C(=O)NC(C(=O)NC(CCNC(=O)OCc1ccccc1)C(=O)NC1CCCc2ccccc21)C(C)C` (centres unmarked) [[3-[3-Methyl-2-(2-methylamino-propionylamino)-butyrylamino]-3-(1,2,3,4-tetrahydro-naphthalen-1-ylcarbamoyl)-propyl]-carbamic acid benzyl ester], the EC50 was 1000 to 10000 nM in experiment [1] and less than 1000 nM on BIR3 domain of rat XIAP.
For `CNC(C)C(=O)NC(C(=O)N1CSCC1C(=O)NN(c1ccccc1)c1ccccc1)C(C)C` (centres unmarked) [N-{1-[4-(N′,N′-Diphenyl-hydrazinocarbonyl)-thiazolidine-3-carbonyl]-2-methyl-propyl}-2-methylamino-propionamide], the results for the EC50 (in experiment [1]; on BIR3 domain of rat XIAP) were 1000 to 10000 nM and less than 1000 nM, respectively.
In the case of `CNC(C)C(=O)NC(C(=O)NC(CCCCNC(=O)OCc1ccccc1Cl)C(=O)NC1CCCc2ccccc21)C(C)C` (centres unmarked) [[5-[3-Methyl-2-(2-methylamino-propionylamino)-butyrylamino]-5-(1,2,3,4-tetrahydro-naphthalen-1-ylcarbamoyl)-pentyl]-carbamic acid 2-chloro-benzyl ester], the half-maximal effective concentration (EC50) (in experiment [1]; on BIR3 domain of rat XIAP) was less than 1000 nM each time.
For the compound `CNC(C)C(=O)NC(C(=O)N1CCCC1C(=O)NCCC(c1ccccc1)c1ccccc1)C(C)(C)C` (centres unmarked) [1-[3,3-Dimethyl-2-(2-methylamino-propionylamino)-butyryl]-pyrrolidine-2-carboxylic acid (3,3-diphenyl-propyl)-amide], the values for the EC50 (in experiment [1]; at BIR3 domain of rat XIAP) were more than 10000 nM and 1000 to 10000 nM, respectively.

For the origin of these results see patent publication US20100190688A1, “Tetrapeptide analogs” (priority 2004, published 2010).
